Experimental data from patent US20190374508A1, “THERAPEUTIC TOPICAL COMPOSITIONS OF APREMILAST” (SARUDBHAVA FORMULATIONS PRIVATE LIMITED, priority 2017, published 2019).

Tested on: TPA induced ear inflammation
Assay: 12-O-Tetradecanoylphorbol-13-Acetate (TPA) induced ear inflammation in mice
Format: in vivo, Male C57BL/6 mice
Settings: for dose dependence of efficacy: topical test formulation
Method: Efficacy of the test formulations was determined in studies using 12-O-Tetradecanoylphorbol-13-Acetate (TPA) induced ear inflammation in mice. Excessive proliferation of keratinocytes is a characteristic of psoriasis, and this cell type is a well reported target of therapy for this disease. In the present study, chronic skin inflammation was induced by repeated topical application of TPA, which is recognized by prolonged skin reaction & epidermal hyperplasia. The animal model used was Male C57BL/6 mice 6 to 8 weeks of age. Protocol: • a) Animals were randomized based on body weight and divided into six different groups consisting of 8 animals. • b) 20 μL of TPA solution containing 2 μg of TPA in vehicle (2% DMSO and 98% methanol) was applied topically on both ventral and dorsal side (10 μL each side) of the right ear of all the animals except group Group G1 on day 0, 2, 4, 7 and 9. • c) Group G1 and Group G2 were topically treated with placebo gel formulation on right ear. • d) Groups G3, G4 and G5 were topically treated with test compositions comprising apremilast (2% w/w, 4% w/w and 10% w/w concentration). • e) Group G6 was topically treated with 0.1% Betamethasone valerate cream. • f) All the formulations were uniformly applied, 25 mg each (50 mg per animal), in anterior and posterior region of the right ear daily from day 0 to day 10.

With `CCOc1cc([C@@H](CS(C)(=O)=O)N2C(=O)c3cccc(NC(C)=O)c3C2=O)ccc1OC` [apremilast, N-[2-[(1S)-1-(3-ethoxy-4-methoxyphenyl)-2-(methylsulfonyl)ethyl]-2,3-dihydro-1,3-dioxo-1H-isoin-dol-4-yl]acetamide] the “efficacy against ear inflammation” value (daily topical application of test formulation on right ear, day 0 to day 10, tested concentrations 2%, 4% and 10% apremilast) was “effective against ear inflammation”, the “reduction on ear edema” value (topical test formulation containing 2% apremilast) was “poor reduction on ear edema which tapered off by day-9” and the “dose dependence of efficacy” value (10% concentration of apremilast) was “saturation of efficacy”. The “dose dependence of efficacy” value (between 2% and 4% apremilast) was “Dose-dependent increase in efficacy”.
